{"source": "paper PMC11111404", "about": "“Discovery of potent small-molecule inhibitors of lipoprotein(a) formation” (Nature, 2024)", "key": {"[1]": {"biological_target": "T1, Lp(a) assembly (recombinant human 16K apo(a) and apoB) (Homo sapiens, UniProt P08519)", "T1 construct": "containing one KIV type 1, six KIV type 2 repeats, one each of KIV types 3–10 and one KV; expressed in transfected cells; host or cells: Conditioned medium of HEK293 (CRL-1573) stably expressing 16K apo(a), combined with conditioned medium of wild-type HepG2 (HB-8065) for endogenous apoB", "T1 sequence (P08519 20-2040)": "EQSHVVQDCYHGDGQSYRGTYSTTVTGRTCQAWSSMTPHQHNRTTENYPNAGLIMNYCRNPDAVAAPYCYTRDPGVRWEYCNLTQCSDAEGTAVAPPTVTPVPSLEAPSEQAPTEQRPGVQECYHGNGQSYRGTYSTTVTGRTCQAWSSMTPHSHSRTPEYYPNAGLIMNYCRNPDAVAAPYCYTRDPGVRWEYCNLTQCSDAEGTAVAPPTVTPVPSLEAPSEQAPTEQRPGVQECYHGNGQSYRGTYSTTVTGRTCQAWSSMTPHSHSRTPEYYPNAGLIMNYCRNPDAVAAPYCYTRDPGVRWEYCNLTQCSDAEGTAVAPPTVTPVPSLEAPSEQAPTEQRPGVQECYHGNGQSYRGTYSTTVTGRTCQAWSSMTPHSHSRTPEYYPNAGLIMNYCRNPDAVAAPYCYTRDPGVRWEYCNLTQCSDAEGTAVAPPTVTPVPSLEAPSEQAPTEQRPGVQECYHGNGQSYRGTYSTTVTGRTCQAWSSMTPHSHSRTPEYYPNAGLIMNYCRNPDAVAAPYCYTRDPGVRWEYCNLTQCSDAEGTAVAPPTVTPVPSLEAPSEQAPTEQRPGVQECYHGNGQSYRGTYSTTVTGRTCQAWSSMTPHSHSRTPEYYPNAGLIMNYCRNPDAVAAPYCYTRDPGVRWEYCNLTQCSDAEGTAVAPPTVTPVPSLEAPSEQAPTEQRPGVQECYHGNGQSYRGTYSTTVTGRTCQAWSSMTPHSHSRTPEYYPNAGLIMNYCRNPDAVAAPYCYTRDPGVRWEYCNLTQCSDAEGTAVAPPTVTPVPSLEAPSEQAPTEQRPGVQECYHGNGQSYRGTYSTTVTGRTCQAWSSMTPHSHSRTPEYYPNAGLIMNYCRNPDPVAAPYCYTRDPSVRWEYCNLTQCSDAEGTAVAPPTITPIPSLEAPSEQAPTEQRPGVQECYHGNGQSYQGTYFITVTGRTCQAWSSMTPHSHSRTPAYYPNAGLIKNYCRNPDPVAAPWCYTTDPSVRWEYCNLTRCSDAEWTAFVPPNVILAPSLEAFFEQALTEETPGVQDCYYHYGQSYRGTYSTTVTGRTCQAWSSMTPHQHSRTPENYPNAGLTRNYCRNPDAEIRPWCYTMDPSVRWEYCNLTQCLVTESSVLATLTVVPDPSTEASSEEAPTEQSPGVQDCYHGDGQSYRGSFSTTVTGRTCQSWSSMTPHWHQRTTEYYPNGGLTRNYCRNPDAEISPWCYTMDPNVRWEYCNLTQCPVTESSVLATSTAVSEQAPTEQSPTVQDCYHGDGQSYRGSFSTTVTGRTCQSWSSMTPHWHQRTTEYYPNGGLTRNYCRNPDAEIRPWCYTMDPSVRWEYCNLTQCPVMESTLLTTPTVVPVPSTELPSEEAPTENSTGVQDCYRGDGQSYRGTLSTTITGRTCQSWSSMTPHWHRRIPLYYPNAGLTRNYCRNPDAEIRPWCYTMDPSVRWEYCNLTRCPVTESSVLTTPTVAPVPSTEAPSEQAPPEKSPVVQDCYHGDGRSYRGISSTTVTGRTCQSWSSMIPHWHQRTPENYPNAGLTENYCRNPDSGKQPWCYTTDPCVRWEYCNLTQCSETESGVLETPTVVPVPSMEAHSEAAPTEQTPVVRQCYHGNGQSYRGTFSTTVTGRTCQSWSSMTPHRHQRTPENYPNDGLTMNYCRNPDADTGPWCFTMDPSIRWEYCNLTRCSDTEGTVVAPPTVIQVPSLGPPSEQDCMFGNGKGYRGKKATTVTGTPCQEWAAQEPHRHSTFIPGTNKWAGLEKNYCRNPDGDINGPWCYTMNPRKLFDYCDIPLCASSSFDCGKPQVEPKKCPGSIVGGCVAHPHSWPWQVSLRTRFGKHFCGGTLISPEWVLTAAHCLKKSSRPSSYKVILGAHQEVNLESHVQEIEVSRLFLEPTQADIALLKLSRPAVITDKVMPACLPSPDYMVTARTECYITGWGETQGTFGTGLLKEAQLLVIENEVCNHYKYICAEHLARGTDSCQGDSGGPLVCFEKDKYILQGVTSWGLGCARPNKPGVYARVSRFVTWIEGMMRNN", "assay": "In vitro Lp(a) assembly assay", "type": "biochemical", "method": "HepG2 cells (HB-8065, ATCC) were cultured in Dulbecco’s modified Eagle’s medium, supplemented with 10% fetal bovine serum, 20 mM 4-(2-hydroxyethyl)-1-piperazineethanesulfonic acid (HEPES) and 100 U ml^−1 penicillin–streptomycin. apoB-conditioned media were collected after 24 h of culture at 37 °C and 5% CO2 from confluent wild-type HepG2 cells that endogenously express and secrete apoB. Apo(a)-conditioned media were collected after 24 h of culture at 37 °C and 5% CO2 from HEK293 cells (CRL-1573, ATCC) that stably express and secrete recombinant human 16K apo(a) protein containing one KIV type 1, six KIV type 2 repeats, one each of KIV types 3–10 and one KV.\nThe assembly assay was conducted in 96-well polypropylene plates by combining HepG2 and apo(a)-HEK293-conditioned media in the presence of a range of compound concentrations. After a two-hour incubation period at 37 °C, the reaction was stopped by the addition of 6-aminocaproic acid. Lp(a) was detected using a sandwich enzyme-linked immunosorbent assay (ELISA), with a polyclonal goat anti-apo(a) capture antibody (Abcam ab31675) and a biotin-conjugated, polyclonal goat anti-apoB detection antibody (Abcam ab20898). In brief, ELISA plates were coated with 100 μl of the capture antibody at a 1:12,500 dilution (around 4 μg ml^−1) into HEPES-buffered saline (HBS), incubated overnight at 4 °C, washed and blocked by the addition of 200 μl of 1% casein. After removal of the blocking buffer, 20 μl of each of the assembly reactions or of a dilution series of purified human Lp(a) (Athens Research, 12-16-121601), diluted 1:5 into HBS supplemented with 0.5% casein, were added to the ELISA plate. […] Absorbance at 450 nm was measured on an Envision plate reader.\nThe concentration of Lp(a) formed in each test condition was determined on the basis of the standard curve constructed from the purified human Lp(a) used as a reference standard, and was normalized to high (buffer) and low (no apoB) controls. […] Data were analysed in GraphPad Prism v.9.5.1."}, "plasminogen": {"biological_target": "T2, plasminogen (Rattus norvegicus, UniProt Q01177)", "T2 construct": "Plasma samples were collected via the abdominal aorta; from tissue; host or cells: Citrated plasma of orally dosed male Sprague Dawley rats", "T2 sequence (Q01177 20-812 limits assumed)": "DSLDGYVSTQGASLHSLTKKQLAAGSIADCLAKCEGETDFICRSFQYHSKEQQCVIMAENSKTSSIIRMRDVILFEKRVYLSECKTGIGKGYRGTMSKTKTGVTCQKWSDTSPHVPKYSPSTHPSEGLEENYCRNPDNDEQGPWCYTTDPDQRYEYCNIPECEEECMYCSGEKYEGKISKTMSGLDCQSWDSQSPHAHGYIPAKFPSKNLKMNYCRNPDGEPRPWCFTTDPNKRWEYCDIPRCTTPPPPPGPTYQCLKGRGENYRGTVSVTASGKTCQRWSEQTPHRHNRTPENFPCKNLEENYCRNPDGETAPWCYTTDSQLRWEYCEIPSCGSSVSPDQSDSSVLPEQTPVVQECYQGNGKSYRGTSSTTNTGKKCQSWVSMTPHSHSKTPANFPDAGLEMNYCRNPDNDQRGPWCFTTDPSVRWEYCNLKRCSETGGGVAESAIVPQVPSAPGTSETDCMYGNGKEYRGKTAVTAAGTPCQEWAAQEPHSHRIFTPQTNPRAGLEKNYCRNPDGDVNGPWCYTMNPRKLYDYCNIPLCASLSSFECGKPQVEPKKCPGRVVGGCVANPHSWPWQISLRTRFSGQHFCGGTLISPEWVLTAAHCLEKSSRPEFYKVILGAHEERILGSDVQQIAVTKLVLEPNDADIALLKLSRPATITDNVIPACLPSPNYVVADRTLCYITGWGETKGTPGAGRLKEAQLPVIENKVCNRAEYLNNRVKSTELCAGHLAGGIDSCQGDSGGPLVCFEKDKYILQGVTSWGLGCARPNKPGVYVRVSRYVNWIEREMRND", "assay": "Rat plasma plasminogen concentration (ELISA) after oral dosing", "type": "in vivo", "conditions": "for PLG mass, Plasminogen (mean of replicates) / PLG mass, Replicate 1 / PLG mass, Replicate 2: rat plasma, individual animal", "description": "Male Sprague Dawley rats (Charles River, average body weight 310 g, aged eight to nine weeks old) were housed in cages with a standard light cycle (12-h light, 12-h dark), at room temperature (22 ± 4 °C), with a relative humidity of 30–70%. Rats were identified by numbers on the cage cards. After arrival, rats were fed on a normal diet (Harlan Teklad diet 2014) and randomized to treatment groups (n = 5 per group) by baseline plasma plasminogen concentration and activity using a BRAT. LSN3441732 and LY3473329 were administered QD orally at three dose levels (3.7, 12.3 and 37 mg kg^−1; 3.2, 10.5 and 31.6 mg kg^−1 per dose, respectively) or vehicle (10 ml kg^−1, 1% HEC, 0.25% Tween-80, Antifoam) for four days. Terminal blood was drawn under general anaesthesia 24 h after the day-4 oral dose. Plasma samples were collected via the abdominal aorta into a premeasured anticoagulant BD Vacutainer used for blood collection (2.7 ml, buffered sodium citrate). The liver was flash frozen in liquid nitrogen. To measure plasminogen activity, 100 µl plasma per well was added to a 96-well plate (Corning) and the following were added to the indicated concentrations: 7.5 mM CaCl2 and 117 mM NaCl. Wells were mixed and warmed to 37 °C. Urokinase (Millipore) was added at 125 U per well and the plate was incubated at 37 °C for 4 min. The plasminogen substrate Chromogenix S-2251 (DiaPharma) was added to a concentration of 3.3 mM. The mixture was added and the plate was sealed and placed in a prewarmed plate reader, shaken, and the absorbance read every 30 s for 2 h. The maximum slope for each curve was determined and the percentage inhibition was calculated relative to untreated controls. Plasminogen protein was measured using ELISA kits for rat (Abcam ab157740) according to the manufacturer’s instructions. Plasminogen activity (percentage) and mass (µg ml^−1) in rat were analysed by ANOVA in JMP 16.1.0. The percentage reduction of plasminogen activity and mass for each treated group was compared with vehicle by Dunnett’s method."}, "Plg mRNA": {"test_system": "Plg mRNA", "assay": "Rat hepatic Plg mRNA after oral dosing", "type": "in vivo", "conditions": "rats, daily oral dosing", "description": "Male Sprague Dawley rats (Charles River, average body weight 310 g, aged eight to nine weeks old) were housed in cages with a standard light cycle (12-h light, 12-h dark), at room temperature (22 ± 4 °C), with a relative humidity of 30–70%. Rats were identified by numbers on the cage cards. After arrival, rats were fed on a normal diet (Harlan Teklad diet 2014) and randomized to treatment groups (n = 5 per group) by baseline plasma plasminogen concentration and activity using a BRAT. LSN3441732 and LY3473329 were administered QD orally at three dose levels (3.7, 12.3 and 37 mg kg^−1; 3.2, 10.5 and 31.6 mg kg^−1 per dose, respectively) or vehicle (10 ml kg^−1, 1% HEC, 0.25% Tween-80, Antifoam) for four days. Terminal blood was drawn under general anaesthesia 24 h after the day-4 oral dose. Plasma samples were collected via the abdominal aorta into a premeasured anticoagulant BD Vacutainer used for blood collection (2.7 ml, buffered sodium citrate). […]\nRNA was isolated from the liver using the PureLink RNA Mini Kit (Invitrogen) and quantified using the NanoDrop spectrophotometer (Thermo Fisher Scientific). […] Quantitative PCR was conducted using TaqMan reagents and primers (Plg Rn00585167_m1, Gapdh Rn99999916_s1). Relative quantitation was calculated using the comparative Ct method. Statistical significance was evaluated using JMP v.16.1.0 software (SAS)."}, "[2]": {"conditions": "3441732 dose 3.7 mpk, 3.7 mg/kg"}, "[3]": {"conditions": "3441732 dose 12.3 mpk, 12.3 mg/kg"}, "[4]": {"conditions": "3473329 dose 3.2 mpk, 3.2 mg/kg"}, "[5]": {"conditions": "3473329 dose 10.5 mpk, 10.5 mg/kg"}, "[6]": {"conditions": "3473329 dose 31.6 mpk, 31.6 mg/kg"}}, "note": "“And” between values parts separate entries of the source, which are not always exact repeats. Identical values can stand only once.", "data": [{"smiles": "Cl.Cl.O=C(Nc1cccc(C[C@H](C(=O)O)[C@H]2CCNC2)c1)Nc1cccc(C[C@H](C(=O)O)[C@H]2CCNC2)c1", "note": "[LSN3441732]", "values": [{"measurement": "IC50", "setting": "[1]", "value": 0.18, "unit": "nM"}, {"measurement": "PLG mass, Plasminogen (mean of replicates)", "setting": "plasminogen; [2]", "value": "199.7 µg/mL and 188.1 µg/mL and 194.6 µg/mL and 164.2 µg/mL and 177.8 µg/mL"}, {"measurement": "PLG mass, Replicate 1", "setting": "plasminogen; [2]", "value": "193.976 µg/mL and 187.308 µg/mL and 191.488 µg/mL and 158.900 µg/mL and 169.900 µg/mL"}, {"measurement": "PLG mass, Replicate 2", "setting": "plasminogen; [2]", "value": "205.500 µg/mL and 188.992 µg/mL and 197.772 µg/mL and 169.500 µg/mL and 185.664 µg/mL"}, {"measurement": "PLG mass, Plasminogen (mean of replicates)", "setting": "plasminogen; [3]", "value": "192.7 µg/mL and 158.1 µg/mL and 151.7 µg/mL and 134.6 µg/mL and 119.3 µg/mL"}, {"measurement": "PLG mass, Replicate 1", "setting": "plasminogen; [3]", "value": "187.144 µg/mL and 151.612 µg/mL and 145.376 µg/mL and 127.920 µg/mL and 115.472 µg/mL"}, {"measurement": "PLG mass, Replicate 2", "setting": "plasminogen; [3]", "value": "198.344 µg/mL and 164.496 µg/mL and 157.928 µg/mL and 141.248 µg/mL and 123.088 µg/mL"}, {"measurement": "PLG mass, Plasminogen (mean of replicates)", "setting": "plasminogen; 3441732 dose 37 mpk, 37 mg/kg", "value": "113.7 µg/mL and 124.7 µg/mL and 116.9 µg/mL and 125.1 µg/mL and 127.8 µg/mL"}, {"measurement": "PLG mass, Replicate 1", "setting": "plasminogen; 3441732 dose 37 mpk, 37 mg/kg", "value": "111.012 µg/mL and 118.768 µg/mL and 109.952 µg/mL and 121.004 µg/mL and 125.228 µg/mL"}, {"measurement": "PLG mass, Replicate 2", "setting": "plasminogen; 3441732 dose 37 mpk, 37 mg/kg", "value": "116.416 µg/mL and 130.704 µg/mL and 123.756 µg/mL and 129.140 µg/mL and 130.432 µg/mL"}, {"measurement": "plasma levels of plasminogen protein", "setting": "plasminogen; rats, oral dosing", "value": "decreased in a dose-dependent manner"}, {"measurement": "levels of hepatic Plg mRNA", "setting": "Plg mRNA", "value": "unchanged"}]}, {"smiles": "O=C(O)[C@@H](Cc1cccc(CN(Cc2cccc(C[C@H](C(=O)O)[C@H]3CCNC3)c2)Cc2cccc(C[C@H](C(=O)O)[C@H]3CCNC3)c2)c1)[C@H]1CCNC1", "note": "[LY3473329]", "values": [{"measurement": "IC50", "setting": "[1]", "value": 0.09, "unit": "nM"}, {"measurement": "PLG mass, Plasminogen (mean of replicates)", "setting": "plasminogen; [4]", "value": "281.7 µg/mL and 301.7 µg/mL and 249.5 µg/mL and 274.1 µg/mL and 246.9 µg/mL"}, {"measurement": "PLG mass, Replicate 1", "setting": "plasminogen; [4]", "value": "275.600 µg/mL and 301.472 µg/mL and 251.100 µg/mL and 270.384 µg/mL and 245.604 µg/mL"}, {"measurement": "PLG mass, Replicate 2", "setting": "plasminogen; [4]", "value": "287.828 µg/mL and 301.932 µg/mL and 247.992 µg/mL and 277.820 µg/mL and 248.160 µg/mL"}, {"measurement": "PLG mass, Plasminogen (mean of replicates)", "setting": "plasminogen; [5]", "value": "239.9 µg/mL and 236.1 µg/mL and 242.7 µg/mL and 225.5 µg/mL and 223.8 µg/mL"}, {"measurement": "PLG mass, Replicate 1", "setting": "plasminogen; [5]", "value": "241.392 µg/mL and 228.556 µg/mL and 235.352 µg/mL and 212.812 µg/mL and 213.952 µg/mL"}, {"measurement": "PLG mass, Replicate 2", "setting": "plasminogen; [5]", "value": "238.436 µg/mL and 243.736 µg/mL and 249.956 µg/mL and 238.240 µg/mL and 233.564 µg/mL"}, {"measurement": "PLG mass, Plasminogen (mean of replicates)", "setting": "plasminogen; [6]", "value": "199.2 µg/mL and 187.7 µg/mL and 187.4 µg/mL and 229.5 µg/mL and 225.0 µg/mL"}, {"measurement": "PLG mass, Replicate 1", "setting": "plasminogen; [6]", "value": "197.560 µg/mL and 179.928 µg/mL and 183.640 µg/mL and 229.888 µg/mL and 216.732 µg/mL"}, {"measurement": "PLG mass, Replicate 2", "setting": "plasminogen; [6]", "value": "200.844 µg/mL and 195.380 µg/mL and 191.112 µg/mL and 229.028 µg/mL and 233.256 µg/mL"}]}]}
